# Results from US12144350B2, “Heterocyclic compound and harmful arthropod control composition containing same” (SUMITOMO CHEMICAL COMPANY, LIMITED, priority 2019, dated 2024).
# Tests used:
# Type in all cases: in vivo
# [1] = test system: diamondback moth (Plutella xylostella); experiment: Test method 4: sprayed cabbage seedlings, 3rd instar larvae of diamondback moth; conditions: 500 ppm, spray 20 mL/seedling on cabbage, after 5 days, 25° C.
# Procedure: (§1) Next, Test Examples are used to show effects of the Present compounds on harmful arthropods. In the following Test Examples, the tests were carried out at 25° C.
# (§2) Each test compound is formulated according to the method described in the Formulation Example 5 to obtain each formulation, and water containing Sindaine (registered trademark) (0.03% by volume) is added thereto to prepare a diluted solution containing a prescribed concentration of each test compound.
# (§3) Cabbage seedlings (on the developmental stage of the second to third true leaf) are planted in a container, and each of said diluted solutions is sprayed into the seedlings in a ratio of 20 mL/seedlings. Thereafter, the stem and leaf of the seedlings are cut out, and placed into a container lined with a filter paper. Five (5) the 3rd instar larvae of diamondback moth (Plutella xylostella) are released into the container. After 5 days, the number of the surviving insects is counted, and the mortality of insects is calculated by the following equation. Mortality (%)=(1−Number of surviving insects/5)×100
# [2] = test system: cotton aphids (Aphis gossypii); experiment: Test method 1: diluted solution sprayed on cucumber seedlings infested with cotton aphids; conditions: 500 ppm, spray 10 mL/seedling on cucumber, 5 days after spraying, 25° C.
# Procedure: as §1, §2
# Cucumber (Cucumis sativus) seedlings (on the developmental stage of the second true leaf) are planted in a container and approximately 30 cotton aphids (Aphis gossypii) (all stages of life) are released onto the cucumber seedlings. After 1 day, each of said diluted solutions is sprayed into the seedlings in a ratio of 10 mL/seedling. After additional 5 days, the number of the surviving insects is examined and the controlling value is calculated by the following equation. Controlling value (%)={1−(Cb×Tai)/(Cai×Tb)}×100 wherein the symbols in the equation represent the following meanings.
# (§4) Cb: Number of the test insects in non-treated area;
# Cai: Number of the surviving insects at the time of the investigation in non-treated area; Tb: Number of the test insects in treated area;
# (§5) Tai: Number of the surviving insects at the time of the investigation in treated area; […]
# [3] = test system: western corn rootworm (Diabrotica virgifera virgifera); experiment: Test method 5: corn seedlings immersed in diluted solution, 2nd instar larvae of western corn rootworm; conditions: 500 ppm, corn seedlings immersed 30 seconds, after 5 days, 25° C.
# Procedure: as §1
# Each test compound is dissolved into a mixed solution (50 μL) of polyoxyethylene sorbitan mono-cocoate and acetone (at a volume ratio of polyoxyethylene sorbitan mono-cocoate:acetone=5:95) per 1 mg of the test compound. Water containing Sindaine (registered trademark) (0.03% by volume) is added thereto to prepare a diluted solution containing a prescribed concentration of each test compound.
# Young seedlings of corns (Zea mays) are immersed into each of said diluted solutions for 30 seconds. Thereafter, two of said seedlings are placed into a petri dish (diameter: 90 mm), and 10 the 2nd instar larvae of western corn rootworm (Diabrotica virgifera virgifera) are released into the dish. After 5 days, the number of the dead insects is counted, and the mortality of insects is calculated by the following equation. Mortality (%)=(Number of dead insects/10)×100
# [4] = test system: cotton aphids (Aphis gossypii); experiment: Test method 2: diluted solution irrigated into plant foot of cucumber seedlings, cotton aphids released after 7 days; conditions: 1000 ppm, irrigation into plant foot 5 mL/seedling, counted after additional 6 days, 25° C.
# Procedure: as §1
# Each test compound is formulated according to the method described in the Formulation Example 5 to obtain each formulation, and water is added thereto to prepare a diluted solution containing a prescribed concentration of each test compound.
# Cucumber seedlings (on the developmental stage of the second true leaf) are planted in a container, and each of said diluted solutions is irrigated into the plant foot in a ratio of 5 mL/seedlings. After 7 days, approximately 30 cotton aphids (Aphis gossypii) (all stages of life) are released onto the surfaces of leaves of the cucumber seedlings. After additional 6 days, the number of the surviving insects is examined and the controlling value is calculated by the following equation. Controlling value (%)={1−(Cb×Tai)/(Cai×Tb)}×100 wherein the symbols in the equation represent the following meanings.
# as §4
# Cai: Number of the surviving insects at the time of the investigation in non-treated area;
# Tb: Number of the test insects in treated area;
# as §5
# [5] = test system: cotton worm (Spodoptera litura); experiment: Test method 3: sprayed cabbage seedlings, 3rd instar larvae of cotton worm; conditions: 500 ppm, spray 20 mL/seedling on cabbage, after 5 days, 25° C.
# Procedure: as §1, §2
# as §3, with “Cabbage (Brassicae oleracea)” for “Cabbage”, “cotton worm (Spodoptera litura)” for “diamondback moth (Plutella xylostella)”
smiles,measurement,setting,value
CCS(=O)(=O)c1c(-n2ccn3nc(C(F)(F)F)cc3c2=O)nc2ccc(C(F)(F)F)cn12 [compound 2],mortality,[1],≥ 80%
same,controlling value,[2],≥ 90%
same,mortality,[3],≥ 80%
same,controlling value,[4],≥ 90%
same,mortality,[5],≥ 80%
